Where “and” joins values, the source holds several entries; their conditions need not be identical. Equal values may be shown once. Calls of active or inactive are those of the source. How the calls were made is not given here.
Target: Perilipin-1 (Homo sapiens) + 1-acylglycerol-3-phosphate O-acyltransferase ABHD5 (Homo sapiens) (UniProt O60240+Q8WTS1)
Assay: inhibition of ABHD5 association with perilipin-1 – biochemical, luminescence, dose response, counter-screen for ABHD5-PLIN5 interaction inhibitor project, late-stage follow-up (AID 651766)
Conditions: ABHD5-PLIN1 interaction

IC50 | SMILES
2.53 µM | Cc1cc(C)c2nc(NNC(=O)c3ccc(S(=O)(=O)N4CCCC(C)C4)cc3)sc2c1 (stereo unspecified)
inactive | COc1ccc(NC(=S)N(CCCN2CCCC2)Cc2cccn2Cc2ccc(Cl)cc2)cc1Cl
4.48 µM | Cc1cc(C)c(NC(=O)C[N+](C)(C)CC(O)COc2cccc3ccccc23)c(C)c1 (stereo unspecified)
3.54 µM | CC1CCN(S(=O)(=O)c2ccc(NC(=O)Cc3cccs3)cc2)CC1
2.13 µM | CC1=CC(C)(C)Nc2ccc(OC(=O)C(C)N3C(=O)c4ccccc4C3=O)cc21 (stereo unspecified)
0.744 µM | CC(CCc1ccco1)NC(=O)CCc1nnc2ccc(NCc3ccccc3Cl)nn12 (stereo unspecified)
1.2 µM | CCOc1cc(N)c(Cl)cc1C(=O)NCC1CN(Cc2ccc(F)cc2)CCO1 (stereo unspecified)
1.62 µM | CCOC(=O)c1c(NC(C)=O)sc2c1CCC(C=O)=C2Sc1ccccc1
2.38 µM and 1.6 µM | Cc1ccc2c(CC(=O)N3CCN(S(=O)(=O)c4ccc5c(c4)OCCO5)CC3)coc2c1
7.34 µM | CCN(CC)CCN(CC(=O)Nc1c(C)cc(C)cc1C)C(=O)c1ccccc1
0.925 µM | CCN(CC)CCOCCOC(=O)C1(c2ccccc2)CCCC1
1.26 µM | CC(C)c1ccc(N2C=Nc3ccc(C(C)C)cc3C2)cc1
3.72 µM | CCOC(=O)c1c(NC(=O)/C=C/C(=O)O)sc(C)c1-c1ccc(C(C)(C)C)cc1
2.14 µM and 2.18 µM | NC(=NCCCCCCN=C(N)/N=C(\N)Nc1ccc(Cl)cc1)/N=C(\N)Nc1ccc(Cl)cc1
> 39.8 µM (inactive) | CC(=O)Oc1ccc(C23c4ccccc4C2(OC(C)=O)c2cc(OC(C)=O)ccc23)cc1 (stereo unspecified)
8.94 µM | O=c1[nH]c(C2CCN(S(=O)(=O)c3ccc(F)cc3)CC2)nc2c1nnn2Cc1ccc2c(c1)OCCO2
1.44 µM | CCN(CC)CCC(C)OC(c1ccccc1)c1ccccc1 (stereo unspecified)
> 39.8 µM (inactive) | COc1cc(C)c2sc3ccccc3c(=O)c2c1NCCN(C)C
1.46 µM | COc1cc(OC)cc(C(=O)NC(=S)N(Cc2ccccc2)C(C)C)c1
5.16 µM | CC(=O)Nc1ccc(S(=O)(=O)N2c3ccc(F)cc3CCC2C)cc1 (stereo unspecified)
inactive | COc1cc2c(cc1OC)C(C)N(CCc1ccc(Cl)cc1)CC2 (stereo unspecified)
1.99 µM | O=c1[nH]c(C2CCN(S(=O)(=O)c3ccc(S(=O)(=O)NC4CC4)cc3)CC2)nc2c1nnn2Cc1ccc(F)cc1
2.04 µM | CC(=O)Cc1cc(O)c2ccccc2c1OC(=O)c1ccc(Br)cc1

IC50 | SMILES
3.98 µM | CC1CCN(S(=O)(=O)c2ccc(NC(=O)Cc3ccccc3)cc2)CC1
> 39.8 µM (inactive) | CN(C)CCN(Cc1ccco1)c1ccccn1
> 39.8 µM (inactive) | CN(C)CCOC1(Cc2ccc(F)cc2)CCC(C(C)(C)C)CC1 (stereo unspecified)
1.46 µM | CCCCNC(=O)Nc1ccc2c(c1)N(C)C(=O)c1ccccc1S2
5.2 µM | O=C(/C(=C/O)N=Nc1ccc(Cl)cc1)c1ccncc1
3.73 µM | CCCNC(=O)Nc1ccc2c(c1)N(C)C(=O)c1ccccc1S2
inactive | O=C(C[n+]1cccc(CNC(=O)c2ccc(OC(F)F)cc2)c1)Nc1cccc(C(F)(F)F)c1
> 39.8 µM (inactive) | CN1CCC(=C2c3ccccc3CC(=O)c3sccc32)CC1
inactive | C=C[C@]1(C)C[C@@H](OC(=O)CSCCN(CC)CC)[C@]2(C)C(C)CC[C@]3(CCC(=O)[C@H]32)[C@@H](C)[C@@H]1O (stereo partly specified)
3.83 µM | CCCCOC(=O)Nc1cc(C(=O)OC)ccc1C(=O)OC
5.99 µM | CN(C)CCCN(C(=O)CCc1ccccc1)c1nc2ccc(Cl)cc2s1
8.99 µM | FC(F)(F)c1cccc(NC(=S)N(CCCN2CCCC2)Cc2cccn2Cc2ccc(Cl)cc2)c1
0.496 µM | Cc1ccc2nc3cc([N+](=O)[O-])cc([N+](=O)[O-])c3cc2c1
> 39.8 µM (inactive) | COCCN(CCOC)c1nc(N)c2c(N)nc3c(c2c1C#N)CC(=O)N3Cc1ccc(Cl)cc1
1.36 µM | CC(=O)Cc1cc(O)c2ccccc2c1OC(=O)c1ccccc1
0.983 µM | CCN(CC)CCOc1ccc(/C(=C(/Cl)c2ccccc2)c2ccccc2)cc1
4.51 µM | CC1Sc2ccc(S(=O)(=O)N3CCC(C(=O)NCc4ccc(Cl)cc4)CC3)cc2NC1=O (stereo unspecified)
4.16 µM | Cc1nc2c(o1)CCc1ccccc1C2N1CCN(C)CC1 (stereo unspecified)
9.85 µM | COc1ccccc1-c1cc(C(=O)NC2CCN(C)CC2)c2ccc(Cl)c(C)c2n1
7.16 µM | COc1ccc(C)c2sc(N(CCN(C)C)C(=O)/C=C/c3cccs3)nc12
inactive | CCN(CC)CCNC(=O)c1ccc(NC(=O)c2cn(-c3ccccc3)nc2-c2cccs2)cc1
6.82 µM | CN(C)CCCN(C(=O)CCc1ccccc1)c1nc2ccc(Br)cc2s1
inactive | Cc1cc(C)c(NC(=O)CN2CCN3CCCC3C2)c(C)c1 (stereo unspecified)

From PubChem BioAssay AID651766 (The Scripps Research Institute Molecular Screening Center, 2012)
